Test system: Plutella xylostella
Assay: Plutella xylostella greenhouse spray test on cauliflower and Bt cauliflower (cry9C)
Assay type: in vivo
Experimental: Seven-week-old cauliflower plants (ordinary cauliflower, variety: Marner Allfrüh) and Bt cauliflower ([…], contains cry9C) were sprayed with the test insecticides with the aid of a track sprayer (200 l/ha). After drying, each of the plants was infected with 5 L2 larvae and 5 L3 larvae of Plutella xylostella. After 2, 4 and 7 days (DAA), feeding damage and mortality were scored. The test was carried out in a greenhouse at 23° C. and a relative atmospheric humidity of 60%.

[1] = 10 g active substance/ha, 2 DAA, Bt cauliflower
[2] = 10 g active substance/ha, 2 DAA, cauliflower
[3] = 10 g active substance/ha, 4 DAA, Bt cauliflower
[4] = 10 g active substance/ha, 4 DAA, cauliflower
[5] = 10 g active substance/ha, 7 DAA, Bt cauliflower
[6] = 10 g active substance/ha, 7 DAA, cauliflower
[7] = 30 g active substance/ha, 2 DAA, Bt cauliflower
[8] = 30 g active substance/ha, 2 DAA, cauliflower
[9] = 30 g active substance/ha, 4 DAA, Bt cauliflower
[10] = 30 g active substance/ha, 4 DAA, cauliflower
[11] = 30 g active substance/ha, 7 DAA, Bt cauliflower
[12] = 30 g active substance/ha, 7 DAA, cauliflower
[13] = 3 g active substance/ha, 2 DAA, Bt cauliflower
[14] = 3 g active substance/ha, 2 DAA, cauliflower
[15] = 3 g active substance/ha, 4 DAA, Bt cauliflower
[16] = 3 g active substance/ha, 4 DAA, cauliflower
[17] = 3 g active substance/ha, 7 DAA, Bt cauliflower
[18] = 3 g active substance/ha, 7 DAA, cauliflower
[19] = 100 g active substance/ha, 2 DAA, Bt cauliflower
[20] = 100 g active substance/ha, 2 DAA, cauliflower
[21] = 100 g active substance/ha, 4 DAA, Bt cauliflower
[22] = 100 g active substance/ha, 4 DAA, cauliflower
[23] = 100 g active substance/ha, 7 DAA, Bt cauliflower
[24] = 100 g active substance/ha, 7 DAA, cauliflower
[25] = 1 g active substance/ha, 2 DAA, Bt cauliflower
[26] = 1 g active substance/ha, 2 DAA, cauliflower
[27] = 1 g active substance/ha, 4 DAA, Bt cauliflower
[28] = 1 g active substance/ha, 4 DAA, cauliflower
[29] = 1 g active substance/ha, 7 DAA, Bt cauliflower
[30] = 1 g active substance/ha, 7 DAA, cauliflower

## C/C(=N\C#N)N(C)Cc1ccc(Cl)nc1 [Acetamiprid]
[1]
  % feeding damage: 0%
  % mortality: 100%
[2]
  % feeding damage: 10%
  % mortality: 0%
[3]
  % feeding damage: 0%
  % mortality: 100%
[4]
  % feeding damage: 12%
  % mortality: 0%
[5]
  % feeding damage: 0%
  % mortality: 100%
[6]
  % feeding damage: 15%
  % mortality: 0%
[7]
  % feeding damage: 0%
  % mortality: 100%
[8]
  % feeding damage: 10%
  % mortality: 0%
[9]
  % feeding damage: 0%
  % mortality: 100%
[10]
  % feeding damage: 12%
  % mortality: 0%
[11]
  % feeding damage: 0%
  % mortality: 100%
[12]
  % feeding damage: 15%
  % mortality: 0%

## CCc1nn(C)c(C(=O)NCc2ccc(Oc3ccc(C)cc3)cc2)c1Cl [Tolfenpyrad]
[13]
  % feeding damage: 3%
  % mortality: 10%
[14]
  % feeding damage: 10%
  % mortality: 0%
[15]
  % feeding damage: 10%
  % mortality: 30%
[16]
  % feeding damage: 10%
  % mortality: 0%
[17]
  % feeding damage: 10%
  % mortality: 50%
[18]
  % feeding damage: 10%
  % mortality: 0%
[1]
  % feeding damage: 10%
  % mortality: 0%
[2]
  % feeding damage: 10%
  % mortality: 0%
[3]
  % feeding damage: 10%
  % mortality: 50%
[4]
  % feeding damage: 10%
  % mortality: 0%
[5]
  % feeding damage: 10%
  % mortality: 50%
[6]
  % feeding damage: 10%
  % mortality: 0%
[7]
  % feeding damage: 0%
  % mortality: 60%
[8]
  % feeding damage: 10%
  % mortality: 0%
[9]
  % feeding damage: 0%
  % mortality: 100%
[10]
  % feeding damage: 10%
  % mortality: 0%
[11]
  % feeding damage: 0%
  % mortality: 100%
[12]
  % feeding damage: 10%
  % mortality: 0%
[19]
  % feeding damage: 10%
  % mortality: 20%
[20]
  % feeding damage: 5%
  % mortality: 0%
[21]
  % feeding damage: 10%
  % mortality: 100%
[22]
  % feeding damage: 5%
  % mortality: 20%
[23]
  % feeding damage: 10%
  % mortality: 100%
[24]
  % feeding damage: 5%
  % mortality: 0%

## N#Cc1nn(-c2c(Cl)cc(C(F)(F)F)cc2Cl)c(N)c1[S+]([O-])C(F)(F)F (stereo not drawn) [Fipronil]
[25]
  % feeding damage: 0%
  % mortality: 70%
[26]
  % feeding damage: 10%
  % mortality: 0%
[27]
  % feeding damage: 0%
  % mortality: 100%
[28]
  % feeding damage: 10%
  % mortality: 0%
[29]
  % feeding damage: 0%
  % mortality: 100%
[30]
  % feeding damage: 12%
  % mortality: 0%
[13]
  % feeding damage: 0%
  % mortality: 100%
[14]
  % feeding damage: 10%
  % mortality: 20%
[15]
  % feeding damage: 0%
  % mortality: 100%
[16]
  % feeding damage: 10%
  % mortality: 20%
[17]
  % feeding damage: 0%
  % mortality: 100%
[18]
  % feeding damage: 12%
  % mortality: 20%
[1]
  % feeding damage: 0%
  % mortality: 100%
[2]
  % feeding damage: 8%
  % mortality: 20%
[3]
  % feeding damage: 0%
  % mortality: 100%
[4]
  % feeding damage: 8%
  % mortality: 20%
[5]
  % feeding damage: 0%
  % mortality: 100%
[6]
  % feeding damage: 10%
  % mortality: 50%
[7]
  % feeding damage: 0%
  % mortality: 100%
[8]
  % feeding damage: 4%
  % mortality: 70%
[9]
  % feeding damage: 0%
  % mortality: 100%
[10]
  % feeding damage: 5%
  % mortality: 100%
[11]
  % feeding damage: 0%
  % mortality: 100%
[12]
  % feeding damage: 5%
  % mortality: 100%
[19]
  % feeding damage: 0%
  % mortality: 100%
[20]
  % feeding damage: 1%
  % mortality: 100%
[21]
  % feeding damage: 0%
  % mortality: 100%
[22]
  % feeding damage: 1%
  % mortality: 100%
[23]
  % feeding damage: 0%
  % mortality: 100%
[24]
  % feeding damage: 1%
  % mortality: 100%

## CS/C(C)=N\OC(=O)N(C)SN(C)C(=O)O/N=C(\C)SC [Thiodicarb]
[25]
  % feeding damage: 0%
  % mortality: 100%
[26]
  % feeding damage: 10%
  % mortality: 0%
[27]
  % feeding damage: 0%
  % mortality: 100%
[28]
  % feeding damage: 10%
  % mortality: 0%
[29]
  % feeding damage: 0%
  % mortality: 100%
[30]
  % feeding damage: 15%
  % mortality: 0%
[13]
  % feeding damage: 0%
  % mortality: 100%
[14]
  % feeding damage: 10%
  % mortality: 0%
[15]
  % feeding damage: 0%
  % mortality: 100%
[16]
  % feeding damage: 10%
  % mortality: 0%
[17]
  % feeding damage: 0%
  % mortality: 100%
[18]
  % feeding damage: 15%
  % mortality: 0%
[1]
  % feeding damage: 0%
  % mortality: 90%
[2]
  % feeding damage: 10%
  % mortality: 0%
[3]
  % feeding damage: 0%
  % mortality: 100%
[4]
  % feeding damage: 10%
  % mortality: 0%
[5]
  % feeding damage: 0%
  % mortality: 100%
[6]
  % feeding damage: 15%
  % mortality: 0%
[7]
  % feeding damage: 0%
  % mortality: 100%
[8]
  % feeding damage: 10%
  % mortality: 0%
[9]
  % feeding damage: 0%
  % mortality: 100%
[10]
  % feeding damage: 10%
  % mortality: 0%
[11]
  % feeding damage: 0%
  % mortality: 100%
[12]
  % feeding damage: 15%
  % mortality: 0%
[19]
  % feeding damage: 0%
  % mortality: 100%
[20]
  % feeding damage: 10%
  % mortality: 0%
[21]
  % feeding damage: 0%
  % mortality: 100%
[22]
  % feeding damage: 10%
  % mortality: 0%
[23]
  % feeding damage: 0%
  % mortality: 100%
[24]
  % feeding damage: 10%
  % mortality: 0%
